Results on 7 compounds are retold here after US10023601B2, “Hydrolysis resistant sialic acid derivatives and methods for their use” (The University of British Columbia, priority 2014, dated 2018).

One series concerns the target T1, Pm0188h (Pasteurella multocida, UniProt Q15KI8).
T1 sequence (Q15KI8 26-412): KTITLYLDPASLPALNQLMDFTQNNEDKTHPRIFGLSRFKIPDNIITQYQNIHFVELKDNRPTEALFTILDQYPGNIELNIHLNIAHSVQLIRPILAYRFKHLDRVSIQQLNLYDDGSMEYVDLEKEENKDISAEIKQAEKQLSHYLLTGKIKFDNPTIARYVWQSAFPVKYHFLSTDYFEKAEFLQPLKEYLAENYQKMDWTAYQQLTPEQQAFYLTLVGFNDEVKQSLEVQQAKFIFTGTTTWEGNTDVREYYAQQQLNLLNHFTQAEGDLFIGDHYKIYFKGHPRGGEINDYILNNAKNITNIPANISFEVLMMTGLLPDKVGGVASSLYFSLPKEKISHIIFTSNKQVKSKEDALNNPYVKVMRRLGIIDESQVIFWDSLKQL
Description: Sialyltransferase kinetics, CMP release assay, transfer to lactose by Pm0188h.

The target of a further series is Cst-I (Campylobacter jejuni, UniProt Q9RGF1).
Series [1] can be described thus: Spontaneous hydrolysis of CMP 7-modified sialic acids by 1H-NMR. Format: physicochemical.
The target in series [2] is T2, T. rangeli (GH33) sialidase (TrSA) (Trypanosoma rangeli, UniProt O44049).
T2 sequence (O44049 23-660): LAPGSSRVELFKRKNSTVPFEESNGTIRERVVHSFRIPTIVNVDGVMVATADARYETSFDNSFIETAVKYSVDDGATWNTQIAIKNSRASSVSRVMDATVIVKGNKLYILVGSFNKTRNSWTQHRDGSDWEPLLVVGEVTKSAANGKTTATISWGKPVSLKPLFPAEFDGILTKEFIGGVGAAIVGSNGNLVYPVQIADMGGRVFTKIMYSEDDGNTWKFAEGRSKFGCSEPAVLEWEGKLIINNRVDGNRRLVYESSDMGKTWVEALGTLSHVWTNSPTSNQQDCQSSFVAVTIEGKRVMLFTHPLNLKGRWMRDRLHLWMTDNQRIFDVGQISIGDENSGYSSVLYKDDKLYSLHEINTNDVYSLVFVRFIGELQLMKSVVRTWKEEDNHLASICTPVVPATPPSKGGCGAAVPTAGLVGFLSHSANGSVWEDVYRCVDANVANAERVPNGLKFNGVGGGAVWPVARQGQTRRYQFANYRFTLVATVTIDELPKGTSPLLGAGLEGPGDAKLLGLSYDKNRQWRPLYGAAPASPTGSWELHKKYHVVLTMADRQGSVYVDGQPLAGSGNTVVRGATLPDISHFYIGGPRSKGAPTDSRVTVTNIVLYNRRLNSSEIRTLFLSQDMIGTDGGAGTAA
Description: Sialidase kinetics, β-galactosidase coupled assay, T. rangeli sialidase.

Series [3] addresses C. perfringens (GH33) sialidase (NanI) (Clostridium perfringens, UniProt A0A0H2YQR1). Format: biochemical.
Series [4] concerns the target influenza neuraminidase N9 (GH34) (Influenza A virus, UniProt P03472). Format: biochemical. To be noted: pH 5.9.
Series [5] is described as follows: Spontaneous hydrolysis of 7-modified sialyl-galactose conjugates by 1H-NMR. Format: physicochemical. To be noted: high salt, dilute acid (25 mM HCl).

Counter-ions that a name gives are not always drawn. Like-named read-outs stand apart in the source and are kept apart here.

influenza neuraminidase N9 (GH34), sequence (P03472 whole entry, looked up): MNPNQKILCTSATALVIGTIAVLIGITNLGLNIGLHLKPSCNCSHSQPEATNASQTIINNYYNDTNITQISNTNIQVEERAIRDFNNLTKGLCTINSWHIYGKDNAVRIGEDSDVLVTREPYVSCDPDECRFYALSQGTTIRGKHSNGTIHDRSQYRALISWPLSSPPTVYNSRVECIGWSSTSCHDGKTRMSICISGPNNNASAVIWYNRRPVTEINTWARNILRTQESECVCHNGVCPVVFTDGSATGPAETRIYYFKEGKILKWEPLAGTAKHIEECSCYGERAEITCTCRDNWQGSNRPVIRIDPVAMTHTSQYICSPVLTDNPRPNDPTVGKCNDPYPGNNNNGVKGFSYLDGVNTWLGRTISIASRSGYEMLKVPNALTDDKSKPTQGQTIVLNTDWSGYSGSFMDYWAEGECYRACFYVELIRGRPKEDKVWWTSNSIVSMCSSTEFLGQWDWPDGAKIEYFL
Cst-I, sequence (Q9RGF1 1-285 limits assumed): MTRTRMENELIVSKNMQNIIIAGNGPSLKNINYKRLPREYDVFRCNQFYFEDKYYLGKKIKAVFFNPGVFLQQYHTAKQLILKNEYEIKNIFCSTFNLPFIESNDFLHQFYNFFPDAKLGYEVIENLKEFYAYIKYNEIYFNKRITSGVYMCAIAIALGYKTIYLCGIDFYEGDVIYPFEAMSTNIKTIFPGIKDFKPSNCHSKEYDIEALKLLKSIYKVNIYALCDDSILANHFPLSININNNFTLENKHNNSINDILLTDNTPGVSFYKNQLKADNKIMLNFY
C. perfringens (GH33) sialidase (NanI), sequence (A0A0H2YQR1 1-694): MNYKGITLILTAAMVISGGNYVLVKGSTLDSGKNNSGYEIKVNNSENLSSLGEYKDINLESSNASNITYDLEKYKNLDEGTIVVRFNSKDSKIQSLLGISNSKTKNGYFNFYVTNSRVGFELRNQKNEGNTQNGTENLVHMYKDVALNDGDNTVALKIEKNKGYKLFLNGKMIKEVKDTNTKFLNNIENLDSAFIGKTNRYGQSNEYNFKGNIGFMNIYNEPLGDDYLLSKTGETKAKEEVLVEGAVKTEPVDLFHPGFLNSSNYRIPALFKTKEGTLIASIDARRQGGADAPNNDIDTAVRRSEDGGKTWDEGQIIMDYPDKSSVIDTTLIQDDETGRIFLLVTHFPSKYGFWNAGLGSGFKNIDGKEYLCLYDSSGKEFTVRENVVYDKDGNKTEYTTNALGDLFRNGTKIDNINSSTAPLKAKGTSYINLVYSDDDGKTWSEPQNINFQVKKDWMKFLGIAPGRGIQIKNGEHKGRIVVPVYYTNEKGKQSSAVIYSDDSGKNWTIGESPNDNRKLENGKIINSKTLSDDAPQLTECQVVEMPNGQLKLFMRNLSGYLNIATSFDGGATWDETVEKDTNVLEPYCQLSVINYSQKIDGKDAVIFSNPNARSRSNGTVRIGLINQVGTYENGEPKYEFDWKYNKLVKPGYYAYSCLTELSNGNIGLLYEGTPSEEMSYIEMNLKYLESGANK

Consider `CC(=O)N[C@H]1[C@H]([C@H](F)[C@H](O)CO)O[C@](OP(=O)(O)OC[C@H]2O[C@@H](n3ccc(N)nc3=O)[C@H](O)[C@@H]2O)(C(=O)O)C[C@@H]1O` [compound 14, 5-Acetamido-3,5,7-trideoxy-2-(hydrogen 5′-cytidylate)-7-fluoro-D-glycero-b-D-galacto-2-nonulopyranosidic acid diammonium salt], for which the “kcat (rel)” value at Pm0188h amounted to 0.54; at Cst-I, 0.77. Moreover, the krel in series [1] came to 0.33. The Hydrolysis rate constant in series [1] (pH 7.2) is recorded as 0.313 (±0.002) h^−1.

On to `CC(=O)N[C@H]1[C@H](C(F)(F)[C@H](O)CO)O[C@](OP(=O)(O)OC[C@H]2O[C@@H](n3ccc(N)nc3=O)[C@H](O)[C@@H]2O)(C(=O)O)C[C@@H]1O` [compound 15, 5-Acetamido-3,5,7-trideoxy-2-(hydrogen 5′-cytidylate)-7,7-difluoro-D-glycero-b-D-galacto-2-nonulopyranosidic acid diammonium salt], for which the “kcat (rel)” value on Pm0188h is reported as 0.06; at Cst-I, 0.25. Besides, the krel in series [1] amounted to 0.01. For the same compound, in series [1] (pH 7.2), the Hydrolysis rate constant is given as 0.0084 (±0.0008) h^−1.

On to `CC(=O)N[C@H]1[C@H]([C@H](O)[C@H](O)CO)O[C@](OP(=O)(O)OC[C@H]2O[C@@H](n3ccc(N)nc3=O)[C@H](O)[C@@H]2O)(C(=O)O)C[C@@H]1O` [compound 16, CMP-NeuNAc, reference compound], for which the “kcat (rel)” value at Pm0188h and on Cst-I was 1 throughout. The compound further returned a krel in series [1] (spontaneous hydrolysis rate relative to CMP-NeuNAc) of 1. The Hydrolysis rate constant in series [1] (spontaneous hydrolysis, high salt pH 7.2 buffer, 1H-NMR) was 0.94 (±0.01) h^−1.

The term Km denotes the substrate concentration at which the rate is half of its maximum. `CC(=O)N[C@H]1[C@H]([C@H](O)[C@H](O)CO)O[C@@](O[C@H]2[C@@H](O)[C@@H](CO)O[C@@H](Oc3ccccc3[N+](=O)[O-])[C@@H]2O)(C(=O)O)C[C@@H]1O` [compound 17, ortho-Nitrophenyl (5-Acetamido-3,5-dideoxy-D-glycero-α-D-galacto-non2-ulopyranosylonic acid)-(2→3)-β-D-galactopyranoside, reference compound]: the kcat in series [2] (sialidase substrate, 30° C., pH 6.0) is 83 (±4) min^−1; in series [3] (pH 6.7), 78 (±2) min^−1. In addition, the Km in series [3] (pH 6.7) stood at 800 µM; in series [4], 830 µM. The Vm in series [4] is reported as 17.5 (±0.5) μM min^−1.

For the compound `CC(=O)N[C@H]1[C@H]([C@H](F)[C@H](O)CO)O[C@@](O[C@H]2[C@@H](O)[C@@H](CO)O[C@@H](Oc3ccccc3[N+](=O)[O-])[C@@H]2O)(C(=O)O)C[C@@H]1O` [compound 18, ortho-Nitrophenyl (5-Acetamido-3,5,7-trideoxy-7-fluoro-D-glycero-α-D-galacto-non2-ulopyranosylonic acid)-(2→3)-β-D-galactopyranoside], the “saturation of enzyme by substrate” value in series [2] is “Saturation was not achieved”. Besides, the “saturation of enzyme by substrate” value in series [3] was “Saturation was not achieved”. Further, in series [4], the Michaelis constant (Km) is 390 µM and the Vm is 4.6 (±0.2) μM min^−1.

`CC(=O)NC1C(O)CC(OC2C(O)C(CO)OC(Oc3ccc4c(C)cc(=O)oc4c3)C2O)(C(=O)O)OC1C(O)C(O)CO` [compound 19, 4-Methylumbelliferyl (5-acetamido-3,5-dideoxy-D-glycero-α-D-galacto-non2-ulopyranosylonic acid)-(2→3)-β-D-galactopyranoside, reference compound]: in series [5], the “spontaneous hydrolysis rate constant” value is 1.45 (±0.8) h-1.

On to `CC(=O)NC1C(O)CC(OC2C(O)C(CO)OC(Oc3ccc4c(C)cc(=O)oc4c3)C2O)(C(=O)O)OC1C(F)C(O)CO` [compound 20, 4-Methylumbelliferyl (5-acetamido-3,5,7-trideoxy-7-fluoro-D-glycero-α-D-galacto-non2-ulopyranosylonic acid)-(23)-β-D-galactopyranoside], for which, in series [5], the “spontaneous hydrolysis rate constant” value is recorded as 0.29 (±0.01) h-1.
